Results on 16 compounds are retold here after PubChem BioAssay (NCI).

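Results reflect a 48-hour exposure of cells in 96-well plates to compound at five concentrations. GI50 marks 50% less growth. At the TGI there is no net growth.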 Some results are limits rather than exact numbers.

Test systems include UACC-257 melanoma; SK-MEL-5 melanoma; KM12 colon; COLO 205 colon; LOX IMVI melanoma; OVCAR-4 ovarian; CAKI-1 renal; SW-620 colon; HCT-15 colon.
Holding throughout (test): NCI-60 cell line screen, 48 h

Regarding `Clc1cc(Cl)c2ns[s+]c2c1Cl`, the TGI in the experiment on UACC-257 melanoma, with SK-MEL-5 melanoma, in the experiment with KM12 colon, in the experiment with COLO 205 colon, in the experiment on LOX IMVI melanoma and in the experiment on OVCAR-4 ovarian was above 100 µM in each case. The TGI in the experiment with CAKI-1 renal and in the experiment with SW-620 colon was above 100 µM throughout.

As to `CCOC(=O)N[C@@H]1C(CC(=O)OC)O[C@H]2OC(C)(C)O[C@H]21` (some centres not stated), the TGI in the experiment on UACC-257 melanoma, with HCT-15 colon, in the experiment on SK-MEL-5 melanoma, in the experiment on KM12 colon, with COLO 205 colon and with LOX IMVI melanoma was above 100 µM each time. Moreover, the TGI in the experiment with OVCAR-4 ovarian, in the experiment on CAKI-1 renal and in the experiment on SW-620 colon was above 100 µM throughout.

Consider `CC(=O)C1Cn2c(nc3ccccc32)C[Se]1` (configuration not stated), for which the TGI stood at 5.38 µM in the experiment with UACC-257 melanoma; 20.5 µM in the experiment with HCT-15 colon; 3.61 µM in the experiment with SK-MEL-5 melanoma; 10.7 µM in the experiment with KM12 colon; 30.1 µM with COLO 205 colon; 12 µM with LOX IMVI melanoma. In addition, the TGI is 11.8 µM in the experiment on OVCAR-4 ovarian, 5.54 µM in the experiment on CAKI-1 renal and 17.3 µM in the experiment with SW-620 colon.

`CC12OC(C(=O)C13CC3)C1C(=O)c3ccc4c(ccc5ccccc54)c3C(=O)C12` (configuration not stated): the GI50 with UACC-257 melanoma is 33.5 µM; with KM12 colon it was 22.9 µM; with COLO 205 colon, 32.2 µM; in the experiment on CAKI-1 renal, 19.7 µM. Also, the TGI with UACC-257 melanoma is above 100 µM; in the experiment with KM12 colon, 59.5 µM; in the experiment on COLO 205 colon, above 100 µM; in the experiment on CAKI-1 renal, 41.8 µM.

Turning to `COC(=O)C12CC3CC(CC(C(=O)O)(C3)C1)C2`, the TGI in the experiment on UACC-257 melanoma, in the experiment with HCT-15 colon, in the experiment on SK-MEL-5 melanoma, with KM12 colon, with LOX IMVI melanoma and with OVCAR-4 ovarian was above 100 µM throughout. Also, the TGI in the experiment on CAKI-1 renal and with SW-620 colon was above 100 µM in each case.

Take `COc1ccc2c3c([nH]c2c1[N+](=O)[O-])C(C)N(C)CC3` (configuration not stated): the TGI in the experiment with UACC-257 melanoma, with HCT-15 colon, in the experiment on SK-MEL-5 melanoma, with KM12 colon, in the experiment with COLO 205 colon and with OVCAR-4 ovarian was above 100 µM throughout. For the same compound, the TGI with CAKI-1 renal and with SW-620 colon was above 100 µM throughout.

`CCCCNC1CCCCC[C@H]1O` (some centres not stated): the TGI in the experiment on UACC-257 melanoma, in the experiment with SK-MEL-5 melanoma, in the experiment on KM12 colon, with COLO 205 colon, with LOX IMVI melanoma and with OVCAR-4 ovarian was above 100 µM each time. In addition, the TGI with CAKI-1 renal and in the experiment on SW-620 colon was above 100 µM throughout.

Take `C=C(C)CCN[Si](c1ccccc1)(c1ccccc1)C(C)(C)C`: the TGI with UACC-257 melanoma turned out to be 29.1 µM; with HCT-15 colon, 48.1 µM; in the experiment with SK-MEL-5 melanoma, 36.9 µM; with KM12 colon, 36.3 µM; in the experiment with COLO 205 colon, 33.3 µM; in the experiment with LOX IMVI melanoma, 31.7 µM. Besides, the TGI in the experiment with OVCAR-4 ovarian is 44.4 µM; with SW-620 colon, above 100 µM.

Turning to `COC(=O)C(CC(=O)Nc1ccc(C)cc1)C(=O)C(=O)Nc1c(C(C)C)cccc1C(C)C` (configuration not stated), the TGI in the experiment with HCT-15 colon, in the experiment on COLO 205 colon, in the experiment on LOX IMVI melanoma, in the experiment with OVCAR-4 ovarian, in the experiment on CAKI-1 renal and in the experiment with SW-620 colon was above 100 µM throughout.

In the case of `COc1cc(/C=C/c2ccc(OC)c(O)c2)cc(OC)c1`, the TGI came out at 24.9 µM with UACC-257 melanoma; 24.2 µM in the experiment with HCT-15 colon; 14.4 µM in the experiment on SK-MEL-5 melanoma; 28.3 µM in the experiment with KM12 colon; 59.3 µM in the experiment on COLO 205 colon; 34.2 µM in the experiment on LOX IMVI melanoma. Also, the TGI with OVCAR-4 ovarian amounted to 67.9 µM; in the experiment with CAKI-1 renal, 72.8 µM; in the experiment with SW-620 colon it was 13.7 µM.

Regarding `COC(=O)[C@@]12C(=O)C=CC(=O)C1C1C(=CC2C)OC2OC3(CCCCC3)OC21` (some centres not stated), the TGI in the experiment on UACC-257 melanoma amounted to 31.5 µM; in the experiment with HCT-15 colon, 31.1 µM; in the experiment with SK-MEL-5 melanoma it was 33.6 µM; with KM12 colon, 36.4 µM; in the experiment on COLO 205 colon, 28.4 µM; with LOX IMVI melanoma, 42.8 µM. Besides, the TGI in the experiment with OVCAR-4 ovarian amounted to 30.3 µM; in the experiment on CAKI-1 renal it was 33.4 µM; in the experiment on SW-620 colon, 37.4 µM.

Consider `Nc1ccccc1/C(O)=C1/CCOC1=O`, for which the TGI in the experiment with UACC-257 melanoma, in the experiment on KM12 colon, in the experiment on COLO 205 colon, in the experiment with OVCAR-4 ovarian, in the experiment with CAKI-1 renal and in the experiment on SW-620 colon was above 100 µM throughout.

Consider `COc1ccc(CN2CC(C)(C)C2=O)c(OC)c1`, for which the TGI in the experiment with UACC-257 melanoma, with HCT-15 colon, with SK-MEL-5 melanoma, in the experiment with KM12 colon, in the experiment on COLO 205 colon and with LOX IMVI melanoma was above 100 µM each time. In addition, the TGI in the experiment on OVCAR-4 ovarian and with SW-620 colon was above 100 µM throughout.

On to `c1cnn(CN(Cn2cccn2)Cn2cccn2)c1`, for which the TGI in the experiment with UACC-257 melanoma, in the experiment with HCT-15 colon, with SK-MEL-5 melanoma, in the experiment with KM12 colon, with COLO 205 colon and in the experiment on LOX IMVI melanoma was above 100 µM each time. In addition, the TGI with OVCAR-4 ovarian, in the experiment on CAKI-1 renal and with SW-620 colon was above 100 µM in each case.

Take `c1ccc(C2N3CCCCC3[C@@H]3c4[nH]c5ccccc5c4CCN23)nc1` (some centres not stated): the TGI in the experiment with UACC-257 melanoma, with HCT-15 colon, in the experiment on SK-MEL-5 melanoma, in the experiment on OVCAR-4 ovarian, in the experiment with CAKI-1 renal and in the experiment with SW-620 colon was above 100 µM throughout.

As for `O=C(N/N=C/c1cc(Br)ccc1O)N/N=C/c1cc(Br)ccc1O`, the TGI with UACC-257 melanoma, in the experiment on SK-MEL-5 melanoma, with KM12 colon, in the experiment on COLO 205 colon, in the experiment on LOX IMVI melanoma and in the experiment with OVCAR-4 ovarian was above 100 µM in each case. The TGI in the experiment on CAKI-1 renal and in the experiment on SW-620 colon was above 100 µM throughout.
